Measurements published in patent publication US9321762B2, “Quinazoline compounds, method for preparing the same and use thereof” (DEVELOPMENT CENTER FOR BIOTECHNOLOGY, priority 2013, dated 2016).
Like-named read-outs stand apart in the source and are kept apart here.

Key:
[1] = molecular target: T1, B-Raf kinase (Homo sapiens, UniProt P15056); test: B-Raf kinase assay ([33P] incorporation into MEK1(K97R)); type: biochemical; conditions: class symbols; 8 μM ATP; read-out: IC50 against B-Raf kinase
T1 construct: purchased Upstate Biotechnology
T1 sequence (P15056 whole entry): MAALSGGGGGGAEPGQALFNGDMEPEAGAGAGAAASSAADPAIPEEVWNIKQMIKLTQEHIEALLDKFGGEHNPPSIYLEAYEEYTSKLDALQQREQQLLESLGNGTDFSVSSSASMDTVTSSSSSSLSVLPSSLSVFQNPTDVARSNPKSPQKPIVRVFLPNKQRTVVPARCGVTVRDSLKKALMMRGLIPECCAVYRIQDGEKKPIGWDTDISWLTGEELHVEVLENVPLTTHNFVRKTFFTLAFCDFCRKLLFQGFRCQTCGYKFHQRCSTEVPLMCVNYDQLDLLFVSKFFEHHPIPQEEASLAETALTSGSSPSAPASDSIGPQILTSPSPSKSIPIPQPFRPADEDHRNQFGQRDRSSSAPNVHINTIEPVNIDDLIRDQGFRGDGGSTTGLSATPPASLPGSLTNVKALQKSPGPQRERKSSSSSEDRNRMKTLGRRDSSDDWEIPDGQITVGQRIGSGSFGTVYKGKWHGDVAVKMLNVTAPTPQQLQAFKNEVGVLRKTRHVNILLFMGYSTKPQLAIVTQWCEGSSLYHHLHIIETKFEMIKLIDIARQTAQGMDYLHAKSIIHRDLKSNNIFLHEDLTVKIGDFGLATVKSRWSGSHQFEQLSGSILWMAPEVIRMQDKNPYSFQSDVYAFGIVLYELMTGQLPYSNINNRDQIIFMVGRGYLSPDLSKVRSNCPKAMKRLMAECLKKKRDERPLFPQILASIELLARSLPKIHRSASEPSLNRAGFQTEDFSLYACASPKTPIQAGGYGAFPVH
Experimental: (§1) Inhibition of kinase activity by a test compound disclosed herein was estimated by quantifying the amount of [^33P] incorporation of a substrate in the presence of the test compound. Standard assay conditions were 5 ng of recombinant B-Raf kinase (Upstate Biotechnology) with 500 ng MEK1(K97R) in assay buffer (8 μM ATP, 0.5 μCi [^33P]ATP (specific activity 3000 Ci/mmol, PerkinElmer), 50 mM Tris/HCl (pH7.5), and 1 mM EGTA, 1 mM Na3VO4, 1% 2-mercaptoethanol, 0.1% Brij 35, and 0.2 mg/ml BSA) in a final volume of 25 μL. Reactions were incubated at 30° C. for 30 min and stopped by adding 3% phosphoric acid, harvested onto a 96-well GF/B UniFilter (PerkinElmer) using a unifilter harvester (PerkinElmer), and counted with a TopCount microplate scintillation counter (PerkinElmer). The IC50 values of inhibitors were determined after carrying out assays at 3-fold serially diluted concentrations of each compound in duplication. The results were analyzed using linear regression software (GraphPad Prism 4; GraphPad Software Inc.).

[2] = molecular target: T2, VEGFR2 kinase (Homo sapiens, UniProt P35968); test: VEGFR2 radiometric kinase assay; type: biochemical; conditions: given as bound; 100 μM ATP; read-out: Inhibition activity, IC50 VEGFR2
T2 construct: VEGFR2 kinase domain alone, Millipore; purchased Millipore
T2 sequence (P35968 834-1162 limits assumed): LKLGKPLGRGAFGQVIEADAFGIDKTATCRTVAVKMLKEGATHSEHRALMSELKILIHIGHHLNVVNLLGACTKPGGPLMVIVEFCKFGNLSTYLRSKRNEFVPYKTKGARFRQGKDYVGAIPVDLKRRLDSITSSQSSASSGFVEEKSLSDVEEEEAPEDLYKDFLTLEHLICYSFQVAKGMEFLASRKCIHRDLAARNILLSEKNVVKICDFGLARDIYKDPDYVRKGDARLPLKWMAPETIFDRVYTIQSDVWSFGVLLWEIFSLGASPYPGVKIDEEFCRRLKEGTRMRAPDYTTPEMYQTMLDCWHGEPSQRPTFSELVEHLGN
Experimental: (§2) The inhibitory activity against VEGFR2 or EGFR was determined by radiometric kinase assay. The experimental condition for VEGFR2 kinase assay was 6.25 ng of recombinant VEGFR2 kinase (VEGFR2 kinase domain alone, Millipore), 5 μg of substrate Poly(Glu-Tyr) (4:1, Sigma), kinase reaction buffer (20 mM MOPS pH 7.0, 1 mM EDTA, 5% glycerol, 0.01% Brij-35, 0.1% β-mercaptoethanol, 1 mg/mL BSA, 100 μM ATP, and 0.1 μCi per well [^33P] ATP (specific activity 3000 Ci/mmol, PerkinElmer)), and the test compound (diluted with 4% DMSO) or DMSO alone (as a control) in a final volume of 25 μL. Reactions were incubated at 30° C. for 30 min and stopped by adding 3% phosphoric acid, harvested onto a 96-well GF/B UniFilter (PerkinElmer) using a unifilter harvester (PerkinElmer), and counted with a TopCount microplate scintillation counter (PerkinElmer).
(§3) Results of inhibition activity against VEGFR2 and EGFR kinases by the selected compounds, which have IC50 values on B-Raf kinase <300 nM, are summarized in Table 6.

[3] = molecular target: T3, EGFR kinase (Homo sapiens, UniProt P00533); test: EGFR radiometric kinase assay; type: biochemical; conditions: 100 μM ATP, read-out: Inhibition activity, IC50 EGFR
T3 construct: EGFR kinase domain alone, Millipore; purchased Millipore
T3 sequence (P00533 712-979 limits assumed): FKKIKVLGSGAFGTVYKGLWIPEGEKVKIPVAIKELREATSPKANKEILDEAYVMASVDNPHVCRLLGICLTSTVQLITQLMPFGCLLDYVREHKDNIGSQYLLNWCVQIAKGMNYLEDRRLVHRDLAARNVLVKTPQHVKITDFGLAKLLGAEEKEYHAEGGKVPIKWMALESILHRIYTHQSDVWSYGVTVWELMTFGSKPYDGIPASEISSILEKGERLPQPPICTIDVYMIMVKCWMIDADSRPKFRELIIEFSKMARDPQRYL
Experimental: as §2
The experimental condition for EGFR kinase assay was 25 ng of EGFR kinase (EGFR kinase domain alone, Millipore), 3 μg of the substrate poly(Glu-Tyr), (Sigma), kinase reaction buffer (10 mM MOPS pH 7.0, 0.3 mM EDTA, 0.5% glycerol, 0.001% Brij-35, 10 mM MnCl2, 0.1 mg/ml BSA, 100 μM ATP, and 0.1 μCi per well [^33P]ATP (specific activity 3000 Ci/mmol, PerkinElmer)), and the test compound (diluted with 4% DMSO) or DMSO (as a control) in a final volume of 25 μL. Reactions were incubated at 30° C. for 30 min and stopped by adding 3% phosphoric acid, harvested onto a 96-well GF/B UniFilter (PerkinElmer) using a unifilter harvester (PerkinElmer), and counted with a TopCount microplate scintillation counter (PerkinElmer).
as §3

[4] = tested on: A375 melanoma cells and COLO205 colon cancer cells; test: Cell proliferation assay (CellTiter-96); type: cell-based; conditions: Homo sapiens; A375 or COLO205, 72 hours treatment; read-out: Cytotoxicity IC50 for A375 or COLO205
Experimental: The anti-proliferative activities of compounds of formula (I) against B-Raf(V600E) mutant human cancer cell lines, A375 melanoma cells and COLO205 colon cancer cells, were measured using the CellTiter™-96 assay kit (Promega) following the manufacturer's instructions. In brief, the cells were maintained in DMEM containing 10% FCS and incubated at 37° C. in 5% CO2 atmosphere. Cells were plated at a density of 2,000 cells/well on a 96-well plate and incubated for 24 h. Then, these cells were treated with different concentrations of the test compounds and incubated for another 72 hours. At the end of the incubation, CellTiter™-96 Aqueous One Solution Reagent (Promega) was added and incubated for another 4.0 hours. Cell viability was determined by measuring absorbance at 490 nm using EMax® microplate reader (Molecular Devices). Data were processed and analyzed using GraphPad Prism.

[5] = molecular target: T4, C-Raf kinase (Homo sapiens, UniProt P04049); test: C-Raf kinase assay ([33P] incorporation into MEK1(K97R)); type: biochemical; conditions: class symbols; 8 μM ATP; read-out: IC50 against C-Raf kinase
T4 construct: purchased Upstate Biotechnology
T4 sequence (P04049 whole entry): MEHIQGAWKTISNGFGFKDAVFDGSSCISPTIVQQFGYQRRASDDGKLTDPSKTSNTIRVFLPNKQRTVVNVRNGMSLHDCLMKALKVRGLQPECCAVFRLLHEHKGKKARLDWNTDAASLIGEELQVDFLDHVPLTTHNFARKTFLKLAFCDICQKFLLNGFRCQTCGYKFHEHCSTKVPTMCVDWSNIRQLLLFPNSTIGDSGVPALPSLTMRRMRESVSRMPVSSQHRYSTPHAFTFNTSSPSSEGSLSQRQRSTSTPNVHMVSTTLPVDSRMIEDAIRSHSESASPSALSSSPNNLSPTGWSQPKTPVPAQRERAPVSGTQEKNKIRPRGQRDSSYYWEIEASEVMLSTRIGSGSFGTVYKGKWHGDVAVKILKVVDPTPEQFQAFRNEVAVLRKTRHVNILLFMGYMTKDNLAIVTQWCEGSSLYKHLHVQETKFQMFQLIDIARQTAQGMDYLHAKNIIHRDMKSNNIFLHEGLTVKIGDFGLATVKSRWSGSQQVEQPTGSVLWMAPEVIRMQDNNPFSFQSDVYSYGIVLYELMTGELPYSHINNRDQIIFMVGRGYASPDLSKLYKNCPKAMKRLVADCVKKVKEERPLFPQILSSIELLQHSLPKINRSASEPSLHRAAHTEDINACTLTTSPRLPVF
Experimental: as §1, with “were 2” for “were 5”, “recombinant C-Raf” for “recombinant B-Raf”, “ng MEK1 (K97R)” for “ng MEK1(K97R)”, “μCi [^33P] ATP” for “μCi [^33P]ATP”, “mg/ml BSA), and the test compound (diluted with 4% DMSO) or DMSO alone (as a control)” for “mg/ml BSA)”

[6] = molecular target: T5, B-Raf(V600E) kinase (Homo sapiens, UniProt P15056, V600E); test: B-Raf(V600E) kinase assay ([33P] incorporation into MEK1(K97R)); type: biochemical; conditions: class symbols; 8 μM ATP; read-out: IC50 against B-Raf(V600E) kinase
T5 construct: purchased Upstate Biotechnology
T5 sequence (P15056 whole entry V600E): as the sequence (P15056 whole entry) above, with V600E counted along it
Experimental: as §1, with “B-Raf(V600E)” for “B-Raf”, “MEK1 (K97R)” for “MEK1(K97R)”, “[^33P] ATP” for “[^33P]ATP”, “BSA), and the test compound (diluted with 4% DMSO) or DMSO alone (as a control)” for “BSA)”

| IC50 [1] [nM] | IC50 [2] [nM] | IC50 ([3]; class symbols) [nM] | IC50 [5] [nM] | IC50 [6] [nM] | IC50 ([3]; given as bound) [nM] | Structure (SMILES) | IC50 [4] [nM] |
| --- | --- | --- | --- | --- | --- | --- | --- |
| < 300 | > 3000 | 1000 to 3000 | 300 to 1000 | < 300 |  | CCCS(=O)(=O)Nc1ccc(F)c(Nc2ncnc3ccc(-c4cccc(F)n4)cc23)c1F [compound 36, N-(2,4-difluoro-3-(6-(6-fluoropyridin-2-yl)-quinazolin-4-ylamino)phenyl)propane-1-sulfonamide] | < 2000 |
| < 300 | > 3000 | 300 to 1000 | < 300 | < 300 |  | CCCS(=O)(=O)Nc1ccc(F)c(Nc2ncnc3ccc(-c4ccncc4)cc23)c1F [compound 12, N-(2,4-difluoro-3-(6-(pyridin-4-yl)-quinazolin-4-ylamino)phenyl)propane-1-sulfonamide] | < 2000 |
| < 300 | > 3000 | 300 to 1000 | < 300 | < 300 |  | CCCS(=O)(=O)Nc1ccc(F)c(Nc2ncnc3cc(OCCOC)c(-c4cccnc4F)cc23)c1F [compound 29, N-(2,4-difluoro-3-(6-(2-fluoropyridin-3-yl)-7-(2-methoxyethoxy)quinazolin-4-ylamino)phenyl)propane-1-sulfonamide] | < 2000 |
| < 300 | > 3000 |  | 1000 to 10000 | < 300 | > 3000 | CCCS(=O)(=O)Nc1ccc(F)c(Nc2ncnc3ccc(-c4ccnc(OCCN(C)C)c4)cc23)c1F [compound 45, N-(3-(6-(2-(2-(dimethylamino)ethoxy)-pyridin-4-yl)quinazolin-4-ylamino)-2,4-difluorophenyl)propane-1-sulfonamide] | < 2000 |
| < 300 | > 3000 | 300 to 1000 | < 300 | < 300 |  | CCCS(=O)(=O)Nc1ccc(F)c(Nc2ncnc3ccc(-c4ccnc(OC)c4)cc23)c1F [compound 31, N-(2,4-difluoro-3-(6-(2-methoxypyridin-4-yl)quinazolin-4-ylamino)phenyl)propane-1-sulfonamide] | < 2000 |
| < 300 | > 3000 |  | < 300 | < 300 | > 3000 | CCCS(=O)(=O)Nc1ccc(F)c(Nc2ccnc3ccc(-c4cccnc4F)cc23)c1F [compound 13, N-(2,4-difluoro-3-(6-(2-fluoropyridin-3-yl)-quinolin-4-ylamino)phenyl)propane-1-sulfonamide] | < 2000 |
| < 300 | > 3000 | 1000 to 3000 | < 300 | < 300 |  | CCCS(=O)(=O)Nc1ccc(F)c(Nc2ccnc3ccc(-c4ccncc4)cc23)c1F [compound 14, N-(2,4-difluoro-3-(6-(pyridin-4-yl)quinolin-4-ylamino)phenyl)propane-1-sulfonamide] | < 2000 |
| < 300 | > 3000 |  | 1000 to 10000 | < 300 | > 3000 | CCCS(=O)(=O)Nc1ccc(F)c(Nc2ncnc3ccc(-c4cccc(OCCN(C)C)n4)cc23)c1F [compound 39, N-(3-(6-(6-(2-(dimethylamino)ethoxy)-pyridin-2-yl)quinazolin-4-ylamino)-2,4-difluorophenyl)propane-1-sulfonamide] | < 2000 |
| < 300 | > 3000 | 300 to 1000 | 300 to 1000 | < 300 |  | CCCS(=O)(=O)Nc1ccc(F)c(Nc2ncnc3ccc(-c4cccc(OC)n4)cc23)c1F [compound 37, N-(2,4-difluoro-3-(6-(6-methoxypyridin-2-yl)quinazolin-4-ylamino)phenyl)propane-1-sulfonamide] | < 2000 |
| < 300 | > 3000 | 300 to 1000 | 1000 to 10000 | < 300 |  | CCCS(=O)(=O)Nc1ccc(F)c(Nc2ncnc3ccc(-c4ccc(OCCN(C)C)nc4)cc23)c1F [compound 35, N-(3-(6-(6-(2-(dimethylamino)ethoxy)-pyridin-3-yl)quinazolin-4-ylamino)-2,4-difluorophenyl)propane-1-sulfonamide] | < 2000 |
| < 300 | > 3000 |  | < 300 | < 300 | > 3000 | CCCS(=O)(=O)Nc1ccc(F)c(Nc2ncnc3ccc(-c4ccc(F)nc4)cc23)c1F [compound 3, N-(2,4-difluoro-3-(6-(6-fluoropyridin-3-yl)-quinazolin-4-ylamino)phenyl)propane-1-sulfonamide] | < 2000 |
| < 300 | > 3000 |  | 300 to 1000 | < 300 | > 3000 | CCCS(=O)(=O)Nc1ccc(F)c(Nc2ncnc3ccc(-c4ccc(=O)[nH]c4)cc23)c1F [compound 32, N-(2,4-difluoro-3-(6-(6-oxo-1,6-dihydropyridin-3-yl)quinazolin-4-ylamino)phenyl)propane-1-sulfonamide] | < 2000 |
